Measured values reported in PMC9572513, “Novel Unsymmetric 3,5-Bis(benzylidene)-4-piperidones That Display Tumor-Selective Toxicity” (Molecules, 2022).
Like-named read-outs stand apart in the source and are kept apart here.

How the values were obtained:
[1] = test system: HCT116 colon cancer cells; test: Cytotoxicity against HCT116 colon cancer cells; assay type: cell-based, human
Protocol: (§1) The culture medium was supplemented with 10% heat-inactivated fetal bovine serum (FBS) and 1% penicillin–streptomycin antibiotics. The time of the bioassays was 48 h. The determinations were undertaken in triplicate on three different occasions.

[2] = test system: HT29 colon cancer cells; test: Cytotoxicity against HT29 colon cancer cells; assay type: cell-based, human
Protocol: as §1

[3] = test system: CRL1790 non-malignant colon cells; test: Cytotoxicity against CRL1790 non-malignant colon cells; assay type: cell-based; details: Homo sapiens, 48 h
Protocol: as §1

[4] = test system: HCT116 and HT29 colon cancer cells; test: Average over HCT116 and HT29 colon cancer cells; assay type: cell-based, human; details: for IC50: Homo sapiens, average of HCT116 and HT29, unit printed only for the single cell-line columns; for Average SI: average of SI for HCT116 and HT29; for PSE (potency-selectivity expression): reciprocal of average IC50 x average SI x 100, colon cells
Protocol: as §1

[5] = test system: Ca9-22 squamous cell carcinoma cells; test: MTT cytotoxicity against Ca9-22 squamous cell carcinoma; assay type: cell-based, human; details: for CC50: Homo sapiens, Ca9-22, 48 h, MTT, read-out: Ca9-22 CC50; for Ca9-22 SI: average CC50 HGF/HPLF/HPC divided by CC50 Ca9-22
Protocol: (§2) The method for evaluating 2a–f and 3a–e against human oral squamous cell carcinoma (OSCC) cell lines (Ca9-22, HSC-2, HSC-3, HSC-4) and human non-malignant oral cells [human gingival fibroblast (HGF), human periodontal ligament fibroblast (HPLF), and human pulp cell (HPC)] have been reported previously, except the length of time of this bioassay was extended from 24 h to 48 h. In brief, different quantities of the compounds were incubated with the cells in Dulbecco’s modified eagle medium (DMEM), which was supplemented with 10% FBS and antibiotics. The cell viability was determined by the 3-(4,5-dimethylthiazol-2-yl)-2,5-diphenyl-2H-tetrazolium bromide (MTT) method as summarized previously (Figure 4).

[6] = test system: HSC-2 squamous cell carcinoma cells; test: MTT cytotoxicity against HSC-2 squamous cell carcinoma; assay type: cell-based, human; details: for CC50: Homo sapiens, HSC-2, 48 h, MTT, read-out: HSC-2 CC50; for HSC-2 SI: average CC50 HGF/HPLF/HPC divided by CC50 HSC-2
Protocol: as §2

[7] = test system: HSC-3 squamous cell carcinoma cells; test: MTT cytotoxicity against HSC-3 squamous cell carcinoma; assay type: cell-based, human; details: for CC50: Homo sapiens, HSC-3, 48 h, MTT, read-out: HSC-3 CC50; for HSC-3 SI: average CC50 HGF/HPLF/HPC divided by CC50 HSC-3
Protocol: as §2

[8] = test system: HSC-4 squamous cell carcinoma cells; test: MTT cytotoxicity against HSC-4 squamous cell carcinoma; assay type: cell-based, human; details: for CC50: Homo sapiens, HSC-4, 48 h, MTT, read-out: HSC-4 CC50; for HSC-4 SI: average CC50 HGF/HPLF/HPC divided by CC50 HSC-4
Protocol: as §2

[9] = test system: Ca9-22, HSC-2, HSC-3, and HSC-4 squamous cell carcinoma cell lines; test: Average over Ca9-22, HSC-2, HSC-3 and HSC-4 OSCC cell lines; assay type: cell-based, human; details: for CC50: average of four OSCC cell lines, read-out: Average CC50
Protocol: as §2

[10] = MTT cytotoxicity against human gingival fibroblast (HGF); assay type: cell-based; details: human, human gingival fibroblasts (HGF), non-malignant oral cells
Protocol: as §2

[11] = MTT cytotoxicity against human periodontal ligament fibroblast (HPLF); assay type: cell-based; details: human, human periodontal ligament fibroblasts (HPLF), non-malignant oral cells
Protocol: as §2

[12] = MTT cytotoxicity against human pulp cell (HPC); assay type: cell-based; details: human, human pulp cells (HPC), non-malignant oral cells
Protocol: as §2

[13] = Average over HGF, HPLF and HPC non-malignant oral cells; assay type: cell-based, human; details: human, HPLF and HPC non-malignant oral cells (average), average of HGF
Protocol: as §2

[14] = test system: CEM cells; test: Differential DNA staining (DNS) cytotoxicity assay, CEM cells; assay type: cell-based; details: Homo sapiens, CCRF-CEM
Protocol: (§3) The method used for generating the data of human acute lymphocytic leukemia (CEM) and human acute promyelocytic leukemia (HL-60) cells in Table 4 has been described previously. In brief, the cells were cultured in media supplemented with 10% FBS and antibiotics. […] The CC50 values of the compounds listed in Table 4 were obtained by linear interpolation equations [28, 29].

[15] = test system: HL-60 cells; test: Differential DNA staining (DNS) cytotoxicity assay, HL-60 cells; assay type: cell-based; details: Homo sapiens
Protocol: as §3

[16] = test system: CEM cells; test: Annexin V-FITC apoptosis assay in CEM cells; assay type: cell-based, human; details: CC50 and twice the CC50 concentrations, 24 h
Protocol: In order to discover if representative compounds induce apoptosis, the annexin V-FITC assay was used. In brief, CEM cells were treated with various compounds for 24 h. The cells were collected and stained with propidium iodide and annexin V-FITC.

[17] = test system: CEM cells; test: ROS production in CEM cells (carboxy-H2DCFDA, flow cytometry); assay type: cell-based, human; details: CC50 and twice the CC50 concentrations
Protocol: (§4) Apoptosis induction in Ca9-22 cells was evaluated by cell cycle analysis and Western blot analysis as described previously (Figure 5). Briefly, for the cell cycle analysis, cells were treated for 24 h with the test samples. Cells were then fixed, digested with RNase A, stained with propidium iodide, filtered through Falcon® cell trainers (Corning Inc., Corning, NY, USA), and then subjected to cell sorting. For the Western blot, cell lysates (equivalent to 5 µg protein) were applied to SDS-polyacrylamide gel electrophoresis. A literature method was used to determine whether representative compounds led to increases in the production of ROS [29]. In brief, CEM cells were treated with the compounds overnight, then with 6-carboxy-2′,7′-dichlorodihydrofluorescein diacetate (carboxy-H2DCFDA) and the samples were processed using flow cytometry.

[18] = test system: Ca9-22 cells; test: Western blot for caspase 3 activation in Ca9-22 cells; assay type: cell-based, human; details: 3 μM, 24 h
Protocol: as §4

[19] = test system: CEM cells; test: Mitochondrial membrane potential in CEM cells (JC-1, flow cytometry); assay type: cell-based, human; details: 7 h
Protocol: The effect on the mitochondrial membrane potential in CEM cells was undertaken using a published method. In brief, the cells were incubated with different compounds for 7 h. The cells were then stained with the JC-1 dye, and the samples were examined by flow cytometry. The results are portrayed in Figure 6C.

[20] = 24 h, read-out: CC50 CEM Cells 24 h
[21] = 48 h, read-out: CC50 CEM Cells 48 h
[22] = HL-60, 24 h, read-out: CC50 HL-60 Cells 24 h
[23] = HL-60, 48 h, read-out: CC50 HL-60 Cells 48 h

Structure (SMILES) | IC50 [3] [µM] | IC50 [4] [nM] | Average SI [4] | PSE (potency-selectivity expression) [4] | CC50 [5] [nM] | Ca9-22 SI [5] | CC50 [6] [nM] | HSC-2 SI [6] | CC50 [7] [nM] | HSC-3 SI [7] | CC50 [8] [nM] | HSC-4 SI [8] | CC50 ([9]; Homo sapiens) [nM] | CC50 at 48 h [10] [µM] | CC50 at 48 h [11] [µM] | CC50 at 48 h [12] [nM] | CC50 at 48 h [13] [µM] | CC50 [14, 20] [nM] | CC50 [14, 21] [nM] | CC50 [15, 22] [nM] | other results
COc1ccc(C=C2CNCC(=Cc3ccc(O)c(CN(C)C)c3)C2=O)cc1OC.Cl.Cl [Compound 2a, 3-(3,4-Dimethoxybenzylidene)-5-(3-((dimethylamino)methyl)-4-hydroxybenzylidene)-4-piperidone dihydrochloride] | 17.5 ± 0.58 | 1770 | 9.91 | 560 | 680 | 11.4 | 1200 | 6.44 | 1060 | 7.29 | 1390 | 5.56 | 1080 | 15.9 | 5 | 2300 | 7.73 | 1640 ± 680 | 820 ± 20 | 1990 ± 920 | IC50 ([1]; Homo sapiens, HCT-116, 48 h, 48 h): 1730 ± 480 nM; HCT116 SI (selectivity index) ([1]; IC50 CRL1790 / IC50 HCT116): 10.1; IC50 ([2]; Homo sapiens, HT-29, 48 h, 48 h): 1800 ± 1240 nM; HT29 SI (selectivity index) ([2]; IC50 CRL1790 / IC50 HT29): 9.72; Average SI ([9]; average of SI for four OSCC cell lines): 7.67; CC50 [15, 23]: 2210 ± 370 nM; apoptotic cells [16]: approximately 30%; ROS generation [17]: generate ROS; caspase 3 activation (cleavage of PARP and procaspase) [18]: induced; depolarization of the mitochondrial membrane potential [19]: induced
CN1CCN(Cc2cc(/C=C3\CNC/C(=C\c4ccccc4)C3=O)ccc2O)CC1 [Compound 3a] | 21.7 ± 0.25 | 370 | 60.1 | 16,243 | 430 | 13.6 | 670 | 8.70 | 490 | 11.9 | 710 | 8.21 | < 1000 | 10.2 | 4.7 | 2600 | 5.83 | 3060 ± 80 | 3320 ± 300 | 8270 ± 400 | CC50 [9]: 580 nM; PSE (potency-selectivity expression) ([9]; reciprocal of average CC50 (OSCC) x average SI x 100): > 1000; CC50 [15, 23]: 1670 ± 540 nM; apoptotic cells [16]: approximately 30%; ROS generation [17]: generate ROS; caspase 3 activation (cleavage of PARP and procaspase) [18]: induced; depolarization of the mitochondrial membrane potential [19]: induced
